Measured values: US9931327B2, “Derivatives of 1-phenyl-2-pyridinyl alkyl alcohols as phosphodiesterase inhibitors” (Chiesi Farmaceutici S.p.A., priority 2011, dated 2018)
Where a name gives a salt, the structure may show the parent alone.

What follows are compounds tested on LPS-induced TNF-α release in peripheral blood mononuclear cells (PBMCs) (assay: In vitro determination of PDE4 inhibitory activity in the PBMCs assay (LPS-induced TNF-α release)). Conditions: PBMC; human PBMCs, LPS 3 ng/ml, 18 hours, TNF-α by ELISA; read-out: PDE4 inhibition (IC50, 50% inhibition of LPS-induced TNF-α release).
Assay type: cell-based, human
Experimental: The assay, which is based on the known inhibitory activity exerted by PDE4 inhibitors on the lipopolyshaccarides (LPS)-induced tumour necrosis factor-alpha (TNF-α release in peripheral blood mononuclear cells (PBMCs), was performed according to a method previously described (Hatzelmann A et al., J. Pharmacol. Exp. Ther., 2001; 297:267-279; and Draheim R et al., J. Pharmacol. Exp. Ther., 2004; 308:555-563, which are incorporated herein by reference in their entireties). Cryopreserved human PBMCs, (100 l/well) were incubated in 96-well plates (10^5 cells/well), for 30 minutes, in the presence or absence (50 microl) of the test compounds whose concentrations ranged from 10^−12 M to 10^−6 M or from […] to 10^−7 M. Subsequently, LPS (3 ng/ml) was added.
After 18 hours of incubation at 37° C. in a humidified incubator under an atmosphere of 95% air and 5% CO2, culture medium was collected and TNF-α measured by ELISA. The results of the tested compounds, representatives of the invention, expressed as mean±95% confidence limits of the molar concentration of the test compound producing 50% inhibition of LPS-induced TNF-α release (IC50) are shown in the following Table: […]

**Q.** Which IC50 does the source give for `O=C(O)c1cccc(S(=O)(=O)N2CCSC2C(=O)O[C@@H](Cc2c(Cl)c[n+]([O-])cc2Cl)c2ccc(OC(F)F)c(OCC3CC3)c2)c1` (single isomer, unassigned) [Compound 75, 4-((S)-2-((S)-3-(3-carboxyphenylsulfonyl)thiazolidine-2-carbonyloxy)-2-(3-(cyclopropylmethoxy)-4-(difluoromethoxy)phenyl)ethyl)-3,5-dichloropyridine 1-oxide or 4-((S)-2-((R)-3-(3-carboxyphenylsulfonyl)thiazolidine-2-carbonyloxy)-2-(3-(cyclopropylmethoxy)-4-(difluoromethoxy)phenyl)ethyl)-3,5-dichloropyridine 1-oxide] here?
**A.** Its IC50 is 0.1 to 1 nM.

**Q.** Which IC50 does the source give for `O=C(OCCN1CCOCC1)c1cccc(S(=O)(=O)N2CCSC2C(=O)O[C@@H](Cc2c(Cl)c[n+]([O-])cc2Cl)c2ccc(OC(F)F)c(OCC3CC3)c2)c1` (single isomer, unassigned) [Compound 133, 3,5-dichloro-4-((S)-2-(3-(cyclopropylmethoxy)-4-(difluoromethoxy)phenyl)-2-((S)-3-(3-((2-morpholinoethoxy)carbonyl)phenylsulfonyl)thiazolidine-2-carbonyloxy)ethyl)pyridine 1-oxide or 3,5-dichloro-4-((S)-2-(3-(cyclopropylmethoxy)-4-(difluoromethoxy)phenyl)-2-((R)-3-(3-((2-morpholinoethoxy)carbonyl)phenylsulfonyl)thiazolidine-2-carbonyloxy)ethyl)pyridine 1-oxide] here?
**A.** Its IC50 is less than 0.1 nM.

**Q.** With `CN(C)S(=O)(=O)c1cccc(S(=O)(=O)N2CCCC2C(=O)O[C@@H](Cc2c(Cl)c[n+]([O-])cc2Cl)c2ccc(OC(F)F)c(OCC3CC3)c2)c1` (stereo in doubt) [Compound 238, 3,5-dichloro-4-((S)-2-(3-(cyclopropylmethoxy)-4-(difluoromethoxy)phenyl)-2-((S)-1-(3-(N,N-dimethylsulfamoyl)phenylsulfonyl)pyrrolidine-2-carbonyloxy)ethyl)pyridine 1-oxide] as the compound, how does the IC50 read?
**A.** Its IC50 is 0.1 to 1 nM.

**Q.** `Cc1noc2ncc(S(=O)(=O)N3CCSC3C(=O)O[C@@H](Cc3c(Cl)c[n+]([O-])cc3Cl)c3ccc(OC(F)F)c(OCC4CC4)c3)cc12` (stereo in doubt) [Compound 239, 3,5-dichloro-4-((S)-2-(3-(cyclopropylmethoxy)-4-(difluoromethoxy)phenyl)-2-((S)-3-(3-methylisoxazolo[5,4-b]pyridin-5-ylsulfonyl)thiazolidine-2-carbonyloxy)ethyl)pyridine 1-oxide] was tested. Which IC50 did it give?
**A.** The IC50 was less than 0.1 nM.

**Q.** How did the IC50 turn out when `Cc1nn(C)c2ncc(S(=O)(=O)N3CCSC3C(=O)O[C@@H](Cc3c(Cl)c[n+]([O-])cc3Cl)c3ccc(OC(F)F)c(OCC4CC4)c3)cc12` (stereo in doubt) [Compound 240, 3,5-dichloro-4-((S)-2-(3-(cyclopropylmethoxy)-4-(difluoromethoxy)phenyl)-2-((S)-3-(1,3-dimethyl-1H-pyrazolo[3,4-b]pyridin-5-ylsulfonyl)thiazolidine-2-carbonyloxy)ethyl)pyridine 1-oxide] was run?
**A.** The IC50 was less than 0.1 nM.

**Q.** `COC(=O)c1cc(CN2CCCC2C(=O)O[C@@H](Cc2c(Cl)c[n+]([O-])cc2Cl)c2ccc(OC(F)F)c(OCC3CC3)c2)oc1C` (stereo partly drawn) [Compound 15, 3,5-dichloro-4-((2S)-2-(3-(cyclopropylmethoxy)-4-(difluoromethoxy)phenyl)-2-(1-((4-(methoxycarbonyl)-5-methylfuran-2-yl)methyl)pyrrolidine-2-carbonyloxy)ethyl)pyridine 1-oxide] was tested. Which IC50 did it give?
**A.** Its IC50 is 1 to 10 nM.

**Q.** For `CS(=O)(=O)Nc1cc(C(=O)N2CCC[C@H]2C(=O)O[C@@H](Cc2c(Cl)c[n+]([O-])cc2Cl)c2ccc(OC(F)F)c(OCC3CC3)c2)ccc1OCC1CC1` [Compound 19, 3,5-dichloro-4-((S)-2-((S)-1-(4-(cyclopropylmethoxy)-3-(methylsulfonamido)benzoyl)pyrrolidine-2-carbonyloxy)-2-(3-(cyclopropylmethoxy)-4-(difluoromethoxy)phenyl)ethyl)pyridine 1-oxide], which IC50 is on record?
**A.** Its IC50 is 1 to 10 nM.

**Q.** For `NCc1cccc(C(=O)N2CCS[C@H]2C(=O)O[C@@H](Cc2c(Cl)c[n+]([O-])cc2Cl)c2ccc(OC(F)F)c(OCC3CC3)c2)c1` [Compound 21, 4-((S)-2-((S)-3-(3-(aminomethyl)benzoyl)thiazolidine-2-carbonyloxy)-2-(3-(cyclopropylmethoxy)-4-(difluoromethoxy)phenyl)ethyl)-3,5-dichloropyridine 1-oxide], which IC50 is on record?
**A.** The IC50 was 1 to 10 nM.

**Q.** With `NCCc1ccc(C(=O)N2CCSC2C(=O)O[C@@H](Cc2c(Cl)c[n+]([O-])cc2Cl)c2ccc(OC(F)F)c(OCC3CC3)c2)cc1` (stereo partly drawn) [Compound 22, 4-((2S)-2-(3-(4-(2-aminoethyl)benzoyl)thiazolidine-2-carbonyloxy)-2-(3-(cyclopropylmethoxy)-4-(difluoromethoxy)phenyl)ethyl)-3,5-dichloropyridine 1-oxide] as the compound, how does the IC50 read?
**A.** Its IC50 is 0.1 to 1 nM.

**Q.** With `Nc1ccc(C(=O)N2CCSC2C(=O)O[C@@H](Cc2c(Cl)c[n+]([O-])cc2Cl)c2ccc(OC(F)F)c(OCC3CC3)c2)cc1` (stereo partly drawn) [Compound 26, 4-((2S)-2-(3-(4-aminobenzoyl)thiazolidine-2-carbonyloxy)-2-(3-(cyclopropylmethoxy)-4-(difluoromethoxy)phenyl)ethyl)-3,5-dichloropyridine 1-oxide] as the compound, how does the IC50 read?
**A.** The IC50 was 0.1 to 1 nM.

**Q.** With `COc1ccc(C(=O)N2CCC[C@H]2C(=O)O[C@@H](Cc2c(Cl)c[n+]([O-])cc2Cl)c2ccc(OC(F)F)c(OCC3CC3)c2)cc1OS(C)(=O)=O` [Compound 30, 3,5-dichloro-4-((S)-2-(3-(cyclopropylmethoxy)-4-(difluoromethoxy)phenyl)-2-((S)-1-(4-methoxy-3-(methylsulfonyloxy)benzoyl)pyrrolidine-2-carbonyloxy)ethyl)pyridine-1-oxide] as the compound, how does the IC50 read?
**A.** The IC50 was 1 to 10 nM.

**Q.** Which IC50 does the source give for `COc1ccc(C(=O)N2CCSC2C(=O)O[C@@H](Cc2c(Cl)c[n+]([O-])cc2Cl)c2ccc(OC(F)F)c(OCC3CC3)c2)cc1S(=O)(=O)N(C)C` (stereo partly drawn) [Compound 32, 3,5-dichloro-4-((2S)-2-(3-(cyclopropylmethoxy)-4-(difluoromethoxy)phenyl)-2-(3-(3-(N,N-dimethylsulfamoyl)-4-methoxybenzoyl)thiazolidine-2-carbonyloxy)ethyl)pyridine 1-oxide] here?
**A.** Its IC50 is 0.1 to 1 nM.

**Q.** `CN(C)Cc1cccc(C(=O)N2CCSC2C(=O)O[C@@H](Cc2c(Cl)c[n+]([O-])cc2Cl)c2ccc(OC(F)F)c(OCC3CC3)c2)c1` (stereo partly drawn) [Compound 34, 3,5-dichloro-4-((2S)-2-(3-(cyclopropylmethoxy)-4-(difluoromethoxy)phenyl)-2-(3-(3-((dimethylamino)methyl)benzoyl)thiazolidine-2-carbonyloxy)ethyl)pyridine 1-oxide] was tested. Which IC50 did it give?
**A.** Its IC50 is 0.1 to 1 nM.

**Q.** How did the IC50 turn out when `O=C(O[C@@H](Cc1c(Cl)c[n+]([O-])cc1Cl)c1ccc(OC(F)F)c(OCC2CC2)c1)C1SCCN1C(=O)c1cnco1` (stereo partly drawn) [Compound 35, 3,5-dichloro-4-((2S)-2-(3-(cyclopropylmethoxy)-4-(difluoromethoxy)phenyl)-2-(3-(oxazole-5-carbonyl)thiazolidine-2-carbonyloxy)ethyl)pyridine 1-oxide] was run?
**A.** The IC50 was less than 0.1 nM.

**Q.** For `O=C(O[C@@H](Cc1c(Cl)c[n+]([O-])cc1Cl)c1ccc(OC(F)F)c(OCC2CC2)c1)[C@@H]1SCCN1C(=O)c1ccc(N2CCS(=O)(=O)CC2)cc1` [Compound 36], which IC50 is on record?
**A.** The IC50 was 0.1 to 1 nM.

**Q.** Which IC50 does the source give for `NC(=O)c1ccc(C(=O)N2CCS[C@H]2C(=O)O[C@@H](Cc2c(Cl)c[n+]([O-])cc2Cl)c2ccc(OC(F)F)c(OCC3CC3)c2)cc1` [Compound 37, 4-((S)-2-((S)-3-(4-carbamoylbenzoyl)thiazolidine-2-carbonyloxy)-2-(3-(cyclopropylmethoxy)-4-(difluoromethoxy)phenyl)ethyl)-3,5-dichloropyridine 1-oxide] here?
**A.** Its IC50 is less than 0.1 nM.

**Q.** For `O=C(O[C@@H](Cc1c(Cl)c[n+]([O-])cc1Cl)c1ccc(OC(F)F)c(OCC2CC2)c1)C1SCCN1C(=O)c1cncs1` (stereo partly drawn) [Compound 38, 3,5-dichloro-4-((2S)-2-(3-(cyclopropylmethoxy)-4-(difluoromethoxy)phenyl)-2-(3-(thiazole-5-carbonyl)thiazolidine-2-carbonyloxy)ethyl)pyridine 1-oxide], which IC50 is on record?
**A.** Its IC50 is less than 0.1 nM.

**Q.** With `O=C(O[C@@H](Cc1c(Cl)c[n+]([O-])cc1Cl)c1ccc(OC(F)F)c(OCC2CC2)c1)[C@@H]1SCCN1C(=O)c1ccc(CN2CCOCC2)cc1` [Compound 39, 3,5-dichloro-4-((S)-2-(3-(cyclopropylmethoxy)-4-(difluoromethoxy)phenyl)-2-((S)-3-(4-(morpholinomethyl)benzoyl)thiazolidine-2-carbonyloxy)ethyl)pyridine 1-oxide] as the compound, how does the IC50 read?
**A.** The IC50 was 0.1 to 1 nM.

Same assay, conditions: PBMC; human PBMCs, LPS 3 ng/ml, 18 hours; compounds of formula (II); read-out: PDE4 inhibition (IC50, 50% inhibition of LPS-induced TNF-α release)

**Q.** `O=C(O[C@@H](Cc1c(Cl)c[n+]([O-])cc1Cl)c1ccc(OC(F)F)c(OCC2CC2)c1)[C@H]1NCCS1` [Compound 6, 3,5-dichloro-4-((S)-2-(3-(cyclopropylmethoxy)-4-(difluoromethoxy)phenyl)-2-((S)-thiazolidine-2-carbonyloxy)ethyl)pyridine 1-oxide hydrochloride] was tested. Which IC50 did it give?
**A.** Its IC50 is 0.1 to 1 nM.

**Q.** Which IC50 does the source give for `O=C(OC(Cc1c(Cl)c[n+]([O-])cc1Cl)c1ccc(OC(F)F)c(OCC2CC2)c1)C1CNCCO1` (stereo not shown) [Compound 8] here?
**A.** The IC50 was 1 to 10 nM.

**Q.** For `O=C(O[C@@H](Cc1c(Cl)c[n+]([O-])cc1Cl)c1ccc(OC(F)F)c(OCC2CC2)c1)[C@H]1CCCCN1` [Compound 9], which IC50 is on record?
**A.** Its IC50 is 1 to 10 nM.

**Q.** With `O=C(O[C@@H](Cc1c(Cl)c[n+]([O-])cc1Cl)c1ccc(OC(F)F)c(OCC2CC2)c1)[C@@H]1CSCN1` [Compound 11] as the compound, how does the IC50 read?
**A.** Its IC50 is 0.1 to 1 nM.
